Publication PMC9962305, “A Highly Expressed Antennae Odorant-Binding Protein Involved in Recognition of Herbivore-Induced Plant Volatiles in Dastarcus helophoroides” (International Journal of Molecular Sciences, 2023)
Entries after “also recorded” stand apart in the source; their conditions may differ. Read-outs that look alike come from different tables or passages of the source.

What was measured:
recombinant DhelOBP5 = recombinant DhelOBP5 (Dastarcus helophoroides, UniProt A0A1I9HZP1); assay: Fluorescence competitive binding assay (1-NPN probe); details: DhelOBP5, pH 7.4; for IC50: read-out: IC50, ligand concentration displacing 50% of the fluorescence intensity of the DhelOBPs/1-NPN complex
Chain of recombinant DhelOBP5 (A0A1I9HZP1 entry or part of it): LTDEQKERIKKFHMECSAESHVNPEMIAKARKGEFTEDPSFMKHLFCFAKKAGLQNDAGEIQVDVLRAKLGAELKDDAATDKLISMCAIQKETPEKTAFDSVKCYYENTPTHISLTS
Description: (§1) Purified proteins were dissolved in 30 mM Tris-HCl buffer (pH 7.4 and 5.0), and emission fluorescence spectra were recorded on an RF-5301PC fluorescence spectrophotometer (Shimadzu, Kyoto, Japan) at room temperature in a right-angle configuration with a 1-cm light path quartz cuvette. To measure the affinity of the fluorescent probe 1-NPN with the target proteins, a […] solution of protein in 30 mM Tris-HCL (pH 7.4 and 5.0) was titrated with aliquots of 1 mM 1-NPN to final concentrations ranging from 0 to the approaching saturation. The probe 1-NPN was excited at 337 nm, and the emission spectra were recorded between 350 and 500 nm. The binding affinities of other ligands were measured using 1-NPN (2 μM) as the fluorescent probe with a stoichiometry of 1:1 (protein: probe), with the final concentration of each ligand ranging from 0 to 20 μM. All ligands, including 1-NPN were purchased from Sigma-Aldrich (St Louis, MO, USA) and TCI Shanghai (Shanghai, China) and dissolved in chromatogram class methanol (Aladdin, Shanghai, China).
(§2) The dissociation constants (Kd) of DhelOBPs with 1-NPN were calculated from Scatchard plots of the binding data using PRISM 8.0 software (GraphPad, La Jolla, CA, USA). Binding affinities (Ki) of DhelOBPs for each ligand were calculated based on the IC50 value (the initial fluorescence level of the competitor concentration reduced by half) using the equation: Ki=IC50/(1+1-NPN/K1-NPN) , where [1-NPN] is the free concentration of 1-NPN, and K1-NPN is the dissociation constant of the complex OBP/1-NPN. The analysis supposes that there is only one protein binding site, which is 100% active, and that the binding is reversible and at an equilibrium.

recombinant DhelOBP18 = recombinant DhelOBP18 (Dastarcus helophoroides, UniProt A0A1I9HZQ8); assay: as above; details: DhelOBP18, pH 7.4; for IC50: read-out: IC50, ligand concentration displacing 50% of the fluorescence intensity of the DhelOBPs/1-NPN complex
Chain of recombinant DhelOBP18 (A0A1I9HZQ8 entry or part of it): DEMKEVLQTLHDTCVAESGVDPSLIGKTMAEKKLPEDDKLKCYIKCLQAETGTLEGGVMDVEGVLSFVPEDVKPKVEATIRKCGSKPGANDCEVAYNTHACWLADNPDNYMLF
Description: as §1, §2

recombinant DhelOBP20 = recombinant DhelOBP20 (Dastarcus helophoroides, UniProt A0A1I9HZP8); assay: as above; details: DhelOBP20, pH 7.4; for IC50: read-out: IC50, ligand concentration displacing 50% of the fluorescence intensity of the DhelOBPs/1-NPN complex
Chain of recombinant DhelOBP20 (A0A1I9HZP8 entry or part of it): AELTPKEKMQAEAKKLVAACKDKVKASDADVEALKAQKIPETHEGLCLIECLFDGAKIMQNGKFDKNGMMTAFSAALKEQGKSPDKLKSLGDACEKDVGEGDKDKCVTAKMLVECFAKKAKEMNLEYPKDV
Description: as §1, §2

recombinant DhelOBP6 = recombinant DhelOBP6 (Dastarcus helophoroides, UniProt A0A1I9HZP3); assay: as above; details: DhelOBP6, pH 7.4; Scatchard plot; read-out: dissociation constant (Kd) bound to 1-NPN
Chain of recombinant DhelOBP6 (A0A1I9HZP3 entry or part of it): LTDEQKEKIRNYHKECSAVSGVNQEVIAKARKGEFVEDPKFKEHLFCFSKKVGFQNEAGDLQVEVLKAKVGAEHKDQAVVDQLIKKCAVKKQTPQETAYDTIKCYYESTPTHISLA
Description: as §1, §2

recombinant DhelOBP14 = recombinant DhelOBP14 (Dastarcus helophoroides, UniProt A0A1I9HZQ7); assay: as above; details: DhelOBP14, pH 7.4; for IC50: read-out: IC50, ligand concentration displacing 50% of the fluorescence intensity of the DhelOBPs/1-NPN complex
Chain of recombinant DhelOBP14 (A0A1I9HZQ7 entry or part of it): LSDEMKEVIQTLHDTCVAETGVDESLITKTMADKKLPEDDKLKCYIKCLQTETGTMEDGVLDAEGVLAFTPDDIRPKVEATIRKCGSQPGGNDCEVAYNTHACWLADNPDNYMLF
Description: as §1, §2

recombinant DhelOBP4 = recombinant DhelOBP4 (Dastarcus helophoroides, UniProt A0A1I9HZP6); assay: as above; details: for IC50: read-out: IC50, ligand concentration displacing 50% of the fluorescence intensity of the DhelOBPs/1-NPN complex; for Ki: calculated from IC50, read-out: Ki, dissociation constant
Chain of recombinant DhelOBP4 (A0A1I9HZP6 entry or part of it): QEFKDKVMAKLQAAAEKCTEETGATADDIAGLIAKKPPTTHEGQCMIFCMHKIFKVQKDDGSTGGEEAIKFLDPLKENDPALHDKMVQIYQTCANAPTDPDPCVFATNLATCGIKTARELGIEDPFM
Description: as §1, §2

[1] = system: D. helophoroides adults injected with dsGFP or dsDhelOBP4; assay: RNAi-mediated Y-tube olfactometer bioassay; type: in vivo, Dastarcus helophoroides
Description: (§3) Y-tube olfactometer experiments were conducted to evaluate the behavioral response to HIPVs with the best binding affinities in darkness at approximately 25 ± 1 °C. The central tube was 15 cm long, and the two branching arms, each linked to one vial, were 12 cm long with a 75° angle between them. Twenty microliters of each chemical that had been diluted 1000 times by volume were added to a 1 × 1 cm filter paper in one of the vials, and 20 μL of liquid paraffin were dropped on the same size filter paper in the second vial as the blank control. An effective choice was recorded when adults crawled at least 5 cm into the arm within 1 min and stayed 30 s at least. After every five individuals, the two arms were exchanged to avoid position effects. After testing 10 individuals, the Y-tube olfactometer was cleaned with absolute ethanol and oven-dried at 150 °C for 2 h. Fifty adult D. helophoroides were analyzed in each treated group. The results were analyzed using the chi-square test. 50 male and 50 female adults of D. helophoroides were chosen on day 1–4 after eclosion. The two treated groups were: dsGFP-injected and dsRNA-injected. dsGFP (250 ng) or dsRNA (250 ng) was respectively injected into the thorax internode of the adults with a microinjector (World Precision Instruments Inc., Sarasota, FL, USA) under a microscope. The RNAi efficiency was detected using a qRT-PCR for seven consecutive days. Following behavioral response was evaluated using the Y-tube olfactometer.

D. helophoroides adults = assay: Y-tube olfactometer bioassay; type: in vivo, Dastarcus helophoroides; details: female and male adults, 20 μL of chemical diluted 1000 times vs liquid paraffin, chi-square test
Description: as §3, with “test.” for “test. 50 male and 50 female adults of D. helophoroides were chosen on day 1–4 after eclosion. The two treated groups were: dsGFP-injected and dsRNA-injected. dsGFP (250 ng) or dsRNA (250 ng) was respectively injected into the thorax internode of the adults with a microinjector (World Precision Instruments Inc., Sarasota, FL, USA) under a microscope. The RNAi efficiency was detected using a qRT-PCR for seven consecutive days. Following behavioral response was evaluated using the Y-tube olfactometer.”

[2] = Scatchard plot, read-out: dissociation constant (Kd) bound to 1-NPN
[3] = female adults after injection of dsDhelOBP4
[4] = female and male adults after injection of dsGFP
[5] = male adults after injection of dsDhelOBP4

SMILES | Kd (recombinant DhelOBP5; [2]) | Kd (recombinant DhelOBP18; [2]) | Kd (recombinant DhelOBP20; [2]) | Kd (recombinant DhelOBP6) | Kd (recombinant DhelOBP14; [2]) | Kd (recombinant DhelOBP4; DhelOBP4, pH 7.4, Scatchard plot, read-out: dissociation constant (Kd) bound to 1-NPN) | IC50 (recombinant DhelOBP5) | IC50 (recombinant DhelOBP18) | IC50 (recombinant DhelOBP20) | IC50 (recombinant DhelOBP14) | IC50 (recombinant DhelOBP4; DhelOBP4, pH 5.0) | IC50 (recombinant DhelOBP4; DhelOBP4, pH 7.4) | Ki (recombinant DhelOBP4; DhelOBP4, pH 7.4) | Behavioral response of D. helophoroides post-RNAi treatment [1, 3] | Behavioral response of D. helophoroides post-RNAi treatment [1, 4] | Behavioral response of D. helophoroides post-RNAi treatment [1, 5] | Behavioral response of D. helophoroides (D. helophoroides adults) | Behavioral response of D. helophoroides (D. helophoroides adults; listed as α-terpineol) | Behavioral response of D. helophoroides (D. helophoroides adults; listed as γ-terpinene)
c1ccc(Nc2cccc3ccccc23)cc1 [1-NPN, N-phenyl-1-naphthylamine, reference compound] | 41 µM | 1.23 µM | 5.13 µM | 120 µM | 17.4 µM | 22.4 µM |  |  |  |  |  |  |  |  |  |  |  |  | 
CC1=CC(=O)[C@H]2C[C@@H]1C2(C)C [(-)-Verbenone] |  |  |  |  |  |  | > 50 µM | > 50 µM | > 50 µM | > 50 µM | > 50 µM | > 20 µM |  |  |  |  |  |  | 
CC12CCC(CC1=O)C2(C)C (stereo not shown) [Camphor] |  |  |  |  |  |  | > 50 µM | > 50 µM | > 50 µM | > 50 µM | > 50 µM | 18 ± 2.4 µM | 16.6 ± 2.2 µM |  |  |  |  |  | 
CC12CCC(C1)C(C)(C)C2=O (stereo not shown) [Fenchone] |  |  |  |  |  |  | > 50 µM | > 50 µM | > 50 µM | > 50 µM | > 20 µM | > 20 µM |  |  |  |  |  |  | 
CC1=CCC(O)(C(C)C)CC1 (stereo not shown) [Terpinen-4-ol] |  |  |  |  |  |  | > 50 µM | > 50 µM | > 50 µM | > 50 µM | > 50 µM | > 20 µM |  |  |  |  |  |  | 
CC1=CCC(=C(C)C)CC1 [Terpinolene] |  |  |  |  |  |  | > 50 µM | > 50 µM | > 50 µM | > 50 µM | > 50 µM | 15.7 ± 1.8 µM | 14.5 ± 1.7 µM |  |  |  |  |  | 
Cc1ccc(C(C)C)cc1 [p-Cymene] |  |  |  |  |  |  | > 50 µM | > 50 µM | > 50 µM | > 50 µM | > 50 µM | 13 ± 0.9 µM | 12 ± 0.9 µM | significantly avoidant effects; also recorded: significant repellent response | identically attractive effects | no behavioral effects; also recorded: did not elicit a behavioral response | significantly attracted; also recorded: attractive effects |  | 
CC1=CC[C@@H](C(C)(C)O)CC1 [α-Terpineol] |  |  |  |  |  |  | > 50 µM | > 50 µM | > 50 µM | > 50 µM | > 50 µM | 10.4 ± 0.1 µM | 9.6 ± 0.1 µM |  |  |  | no behavioral effects | did not elicit a behavioral response | 
CC1=CCC(C(C)C)=CC1 [γ-Terpinene] |  |  |  |  |  |  | > 50 µM | > 50 µM | > 50 µM | > 50 µM | > 50 µM | 11 ± 0.3 µM | 10.1 ± 0.3 µM | significantly avoidant effects; also recorded: significant repellent response | identically attractive effects | no behavioral effects; also recorded: did not elicit a behavioral response | attractive effects |  | significantly attracted
